pIC50: −log10 of the molar value.
Experiments:
human AML MV-4-11 cells = assay: Inhibition of cell proliferation in MV4-11 cells (CellTiter Aqueous One); assay type: cell-based; details: for pIC50: MV4-11, 72 h
How it was run: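 Exponentially growing MV-4-11 cells (5×10^4/well) were treated immediately with two-fold dilutions of compound from 30 μM to 0.2 μM, in triplicate, for 72 h at 37° C, 5% CO2. Viability was measured by MTS absorbance at 490 nm after 3–4 h. Proliferation relative to DMSO after blank correction gave IC50.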

[1] = biological target: T1, Brd4 bromodomain 1 (BRD4(1)) (Homo sapiens, UniProt O60885); assay: Inhibition of tetra-acetylated histone H4 binding to Brd4 bromodomain 1 (TR-FRET); details: tetra-acetylated histone H4 peptide, first bromodomain of Brd4
T1 construct: made in house; host or cells: E. coli BL21(DE3)
How it was run: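 His-tagged BRD4(1) from E. coli (200 nM) with biotinylated tetra-acetylated H4 peptide (25-50 nM), Eu-cryptate streptavidin and XL665 anti-His, in HEPES pH 7.4/phosphate/KF buffer, 0.2% DMSO. After 2 h at room temperature, TR-FRET 665/620 nm ratio read; IC50 from dose-response curves.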

hIL-6 mRNA = assay: Inhibition of hIL-6 mRNA transcription in LPS-stimulated U937 cells; assay type: cell-based; details: Homo sapiens, U-937; PMA-differentiated U937 cells, 1 h pretreatment, 1 ug/mL LPS stimulation, 3 h; read-out: IL-6 activity (Inhibition of hIL-6 mRNA Transcription)
Method: In this example, hIL-6 mRNA in tissue culture cells was quantitated to measure the transcriptional inhibition of hIL-6 when treated with a compound of the invention.
Human leukemic monocyte lymphoma U937 cells (CRL-1593.2) were plated at a density of 3.2×10^4 cells per well in a 96-well plate in 100 μL RPMI-1640 containing 10% FBS and penicillin/streptomycin, and differentiated into macrophages for 3 days in 60 ng/mL PMA ([…]) at 37° C. in 5% CO2 prior to the addition of compound. The cells were pretreated for 1 h with increasing concentrations of test compound in 0.1% DMSO prior to stimulation with 1 ug/mL lipopolysaccharide from Escherichia coli. Triplicate wells were used for each concentration. The cells were incubated at 37° C., 5% CO2 for 3 h before the cells were harvested. At time of harvest, media was removed and cells were rinsed in 200 μL PBS. Cells were harvested using the mRNA Catcher PLUS kit according to manufacturer's instructions. The eluted mRNA was then used in a one-step quantitative real-time PCR reaction using components of the RNA UltraSense™ One-Step Kit (Life Technologies) together with Applied Biosystems TaqMan® primer-probes for hIL-6 and Cyclophilin. Real-time PCR plates were run on a VIa™ 7 real time PCR machine (Applied Biosystems), data was analyzed, normalizing the Ct values for hIL-6 to an internal control, prior to determining the fold expression of each sample, relative to the control.

c-myc = assay: Inhibition of c-myc expression (mRNA, real-time PCR) in MV4-11 cells; assay type: cell-based; details: Human AML MV4-11 cells, 3 h, cMYC mRNA
How it was run: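 MV4-11 cells treated 3 h at 37° C with increasing compound concentrations or 0.1% DMSO, in triplicate. cMYC mRNA quantified by one-step TaqMan real-time PCR, Ct normalized to internal control (Cyclophilin primers used), fold expression relative to control.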

pIC50 (human AML MV-4-11 cells)	pIC50 [1]	pIC50 (hIL-6 mRNA)	pIC50 (c-myc)	SMILES	Cell Proliferation activity (human AML MV-4-11 cells; 72 h)
≥ 6.52	≥ 6.52	≥ 6.52	≥ 6.52	Cc1noc(C)c1-c1cc(N)c2nc(NCc3cccnc3)n(Cc3ccccc3)c2c1 [compound 157, 1-benzyl-6-(3,5-dimethylisoxazol-4-yl)-N2-(pyridin-3-ylmethyl)-1H-benzo[d]imidazole-2,4-diamine]	–
4.52 to 5.52	5.52 to 6.52	5.52 to 6.52	5.52 to 6.52	Cc1ccc(Cn2c(C)nc3ncc(-c4c(C)noc4C)cc32)s1 [compound 76, 3,5-dimethyl-4-(2-methyl-1-((5-methylthiophen-2-yl)methyl)-1H-imidazo[4,5-b]pyridin-6-yl)isoxazole]	–
5.52 to 6.52	≥ 6.52	5.52 to 6.52	5.52 to 6.52	Cc1noc(C)c1-c1cnc2nc(C)n(Cc3ccc(O)cc3)c2c1 [compound 84, 4-((6-(3,5-dimethylisoxazol-4-yl)-2-methyl-1H-imidazo[4,5-b]pyridin-1-yl)methyl)phenol]	–
4.52 to 5.52	4.52 to 5.52	4.52 to 5.52	4.52 to 5.52	Cc1noc(C)c1-c1ccc2ccn(Cc3ccc(F)cc3)c2n1 [Example Compound 49, 4-(1-(4-fluorobenzyl)-1H-pyrrolo[2,3-b]pyridin-6-yl)-3,5-dimethylisoxazole]	–
5.52 to 6.52	5.52 to 6.52	5.52 to 6.52	4.52 to 5.52	Cc1noc(C)c1-c1cc(N)c2ccn(Cc3ccc(F)cc3)c2n1 [Example Compound 52, 6-(3,5-dimethylisoxazol-4-yl)-1-(4-fluorobenzyl)-1H-pyrrolo[2,3-b]pyridin-4-amine]	–
–	≥ 6.52	5.52 to 6.52	4.52 to 5.52	Cc1noc(C)c1Nc1cnc2nc(C)n(Cc3ccccc3)c2c1 [compound 155, N-(1-benzyl-2-methyl-1H-imidazo[4,5-b]pyridin-6-yl)-3,5-dimethylisoxazol-4-amine]	Not active
5.52 to 6.52	≥ 6.52	5.52 to 6.52	5.52 to 6.52	Cc1noc(C)c1-c1cc(N(C)C)c2ncn(Cc3ccc(F)cc3)c2c1 [Example Compound 29, 6-(3,5-dimethylisoxazol-4-yl)-1-(4-fluorobenzyl)-N,N-dimethyl-1H-benzo[d]imidazol-4-amine]	–
4.52 to 5.52	≥ 6.52	5.52 to 6.52	5.52 to 6.52	Cc1noc(C)c1-c1cc2c(ncn2Cc2ccccc2)c(N)n1 [Example Compound 33, 1-benzyl-6-(3,5-dimethylisoxazol-4-yl)-1H-imidazo[4,5-c]pyridin-4-amine]	–
4.52 to 5.52	5.52 to 6.52	5.52 to 6.52	4.52 to 5.52	Cc1noc(C)c1-c1cc(N)c2ccn(Cc3ccccc3)c2n1 [compound 73, 1-benzyl-6-(3,5-dimethylisoxazol-4-yl)-1H-pyrrolo[2,3-b]pyridin-4-amine]	–
–	≥ 6.52	5.52 to 6.52	≥ 6.52	Cc1noc(C)c1-c1cc(C#N)c2nc(C)n(Cc3ccccc3)c2c1 [compound 85, 1-benzyl-6-(3,5-dimethylisoxazol-4-yl)-2-methyl-1H-benzo[d]imidazole-4-carbonitrile]	–
–	5.52 to 6.52	5.52 to 6.52	4.52 to 5.52	Cc1noc(C)c1-c1cnc2nc(C)n(CC3CC3)c2c1 [Example Compound 63, 4-(1-(cyclopropylmethyl)-2-methyl-1H-imidazo[4,5-b]pyridin-6-yl)-3,5-dimethylisoxazole]	–
5.52 to 6.52	≥ 6.52	5.52 to 6.52	–	Cc1noc(C)c1-c1cc([N+](=O)[O-])c2nc(N3CCN(C)CC3)n(Cc3ccccc3)c2c1 [compound 136, 4-(1-benzyl-2-(4-methylpiperazin-1-yl)-4-nitro-1H-benzo[d]imidazol-6-yl)-3,5-dimethylisoxazole]	–
4.52 to 5.52	5.52 to 6.52	5.52 to 6.52	–	Cc1noc(C)c1-c1cc2c(cn1)ncn2Cc1ccccc1 [Example Compound 31, 4-(1-benzyl-1H-imidazo[4,5-c]pyridin-6-yl)-3,5-dimethylisoxazole]	–
4.52 to 5.52	5.52 to 6.52	5.52 to 6.52	–	Cc1noc(C)c1-c1ccc2[nH]cc(Nc3ccccc3)c2n1 [Example Compound 23, 5-(3,5-dimethylisoxazol-4-yl)-N-phenyl-1H-pyrrolo[3,2-b]pyridin-3-amine]	–

The next lines start with the molecule.

SMILES	pIC50 (human AML MV-4-11 cells)	pIC50 [1]	pIC50 (hIL-6 mRNA)	pIC50 (c-myc)	Cell Proliferation activity (human AML MV-4-11 cells; 72 h)
Cc1noc(C)c1-c1cnc2c(c1)ncn2Cc1ccc(F)cc1 [Example Compound 44, 4-(3-(4-fluorobenzyl)-3H-imidazo[4,5-b]pyridin-6-yl)-3,5-dimethylisoxazole]	4.52 to 5.52	5.52 to 6.52	5.52 to 6.52	4.52 to 5.52	–
Cc1noc(C)c1-c1cnc2c(Br)cn(Cc3ccccc3)c2c1 [Example Compound 34, 4-(1-benzyl-3-bromo-1H-pyrrolo[3,2-b]pyridin-6-yl)-3,5-dimethylisoxazole]	5.52 to 6.52	≥ 6.52	5.52 to 6.52	5.52 to 6.52	–
Cc1noc(C)c1-c1cc(N)c2oc(=O)n(Cc3ccccc3)c2c1 [compound 67, 7-amino-3-benzyl-5-(3,5-dimethylisoxazol-4-yl)benzo[d]oxazol-2(3H)-one]	5.52 to 6.52	≥ 6.52	≥ 6.52	≥ 6.52	–
Cc1noc(C)c1-c1cnc2nc(NCc3ccccc3)n(Cc3ccccc3)c2c1 [compound 153, N,1-dibenzyl-6-(3,5-dimethylisoxazol-4-yl)-1H-imidazo[4,5-b]pyridin-2-amine]	≥ 6.52	≥ 6.52	≥ 6.52	≥ 6.52	–
CNc1cc(-c2c(C)noc2C)cc2c1ncn2Cc1ccc(F)cc1 [Example Compound 28, 6-(3,5-dimethylisoxazol-4-yl)-1-(4-fluorobenzyl)-N-methyl-1H-benzo[d]imidazol-4-amine]	5.52 to 6.52	≥ 6.52	5.52 to 6.52	5.52 to 6.52	–
Cc1noc(C)c1-c1cc(CN)c2[nH]c(=O)n(Cc3ccccc3)c2c1 [Example Compound 22, 4-(aminomethyl)-1-benzyl-6-(3,5-dimethylisoxazol-4-yl)-1H-benzo[d]imidazol-2(3H)-one]	5.52 to 6.52	5.52 to 6.52	5.52 to 6.52	5.52 to 6.52	–
CC(=O)Nc1cn(Cc2ccccc2)c2cc(-c3c(C)noc3C)cnc12 [compound 99, N-(1-benzyl-6-(3,5-dimethylisoxazol-4-yl)-1H-pyrrolo[3,2-b]pyridin-3-yl)acetamide]	5.52 to 6.52	≥ 6.52	5.52 to 6.52	5.52 to 6.52	–
Cc1noc(C)c1-c1cnc2nc(N3CCOCC3)n(CC3CCCC3)c2c1 [compound 208, 4-(1-(cyclopentylmethyl)-6-(3,5-dimethylisoxazol-4-yl)-1H-imidazo[4,5-b]pyridin-2-yl)morpholine]	5.52 to 6.52	≥ 6.52	≥ 6.52	≥ 6.52	–
Cc1noc(C)c1-c1cnc2nc(N3CCC3)n(CC3CCCC3)c2c1 [compound 209, 4-(2-(azetidin-1-yl)-1-(cyclopentylmethyl)-1H-imidazo[4,5-b]pyridin-6-yl)-3,5-dimethylisoxazole]	≥ 6.52	≥ 6.52	≥ 6.52	5.52 to 6.52	–
Cc1noc(C)c1-c1cc(C(N)=O)c2[nH]c(=O)n(Cc3ccccc3)c2c1 [Example Compound 21, 1-benzyl-6-(3,5-dimethylisoxazol-4-yl)-2-oxo-2,3-dihydro-1H-benzo[d]imidazole-4-carboxamide]	5.52 to 6.52	≥ 6.52	≥ 6.52	–	–
Cc1nc2ncc(-c3ccnn3C)cc2n1Cc1ccccc1 [compound 154, 1-benzyl-2-methyl-6-(1-methyl-1H-pyrazol-5-yl)-1H-imidazo[4,5-b]pyridine]	4.52 to 5.52	≥ 6.52	4.52 to 5.52	–	–
Cc1noc(C)c1-c1cnc2nc(NC3CCC(O)CC3)n(Cc3ccccc3)c2c1 (stereo not drawn) [compound 207, 4-((1-benzyl-6-(3,5-dimethylisoxazol-4-yl)-1H-imidazo[4,5-b]pyridin-2-yl)amino)cyclohexanol]	≥ 6.52	≥ 6.52	≥ 6.52	–	–

Reference: patent publication US10363257B2 (ZENITH EPIGENETICS LTD., priority 2013, dated 2019)
